Experimental data as given in ChEMBL document CHEMBL3991601, “The target landscape of clinical kinase drugs” (Science, 2017).
Calls of active or inactive are those of the source. Cut-off read from the data, not from the text of the source, for most assays here: actives have a measured Kd and inactives only a lower limit.

Columns and labels:
[1] = biological target: Protein-tyrosine kinase 6 (Homo sapiens, UniProt Q13882)
[2] = biological target: T1, Ribosyldihydronicotinamide dehydrogenase [quinone] (Homo sapiens, UniProt P16083)
T1 sequence (P16083 whole entry): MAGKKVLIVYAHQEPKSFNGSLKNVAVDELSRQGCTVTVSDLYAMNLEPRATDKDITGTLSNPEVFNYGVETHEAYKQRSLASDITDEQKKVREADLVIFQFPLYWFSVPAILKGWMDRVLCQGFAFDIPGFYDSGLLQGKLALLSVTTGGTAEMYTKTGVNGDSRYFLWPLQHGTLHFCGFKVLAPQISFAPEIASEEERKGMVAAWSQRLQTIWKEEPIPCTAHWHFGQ

Myosin-14 = Myosin-14 (Homo sapiens, UniProt Q7Z406)
[3] = biological target: T2, Phosphatidylinositol 5-phosphate 4-kinase type-2 gamma (Homo sapiens, UniProt Q8TBX8)
T2 sequence (Q8TBX8 whole entry): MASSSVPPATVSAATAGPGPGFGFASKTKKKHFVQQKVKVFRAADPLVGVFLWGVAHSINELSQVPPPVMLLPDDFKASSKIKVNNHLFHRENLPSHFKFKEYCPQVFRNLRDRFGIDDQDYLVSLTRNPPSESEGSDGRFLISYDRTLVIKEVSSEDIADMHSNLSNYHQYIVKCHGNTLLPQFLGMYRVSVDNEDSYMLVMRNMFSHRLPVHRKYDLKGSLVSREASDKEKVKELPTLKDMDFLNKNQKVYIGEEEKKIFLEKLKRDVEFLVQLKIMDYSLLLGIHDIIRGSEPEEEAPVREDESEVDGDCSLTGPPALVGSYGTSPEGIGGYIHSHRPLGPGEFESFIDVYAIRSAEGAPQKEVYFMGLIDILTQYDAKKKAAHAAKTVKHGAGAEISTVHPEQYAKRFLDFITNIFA

Pyridoxal kinase = biological target: T3, Pyridoxal kinase (Homo sapiens, UniProt O00764)
T3 sequence (O00764 whole entry): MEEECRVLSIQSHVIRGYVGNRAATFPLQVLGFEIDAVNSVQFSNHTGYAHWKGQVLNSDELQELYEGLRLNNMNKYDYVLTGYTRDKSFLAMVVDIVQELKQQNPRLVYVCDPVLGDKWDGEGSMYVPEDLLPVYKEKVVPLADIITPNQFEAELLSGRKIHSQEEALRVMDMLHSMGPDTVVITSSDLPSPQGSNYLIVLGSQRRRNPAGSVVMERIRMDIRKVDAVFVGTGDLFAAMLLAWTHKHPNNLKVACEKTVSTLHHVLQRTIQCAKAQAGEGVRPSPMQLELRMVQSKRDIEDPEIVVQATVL

[4] = biological target: Cyclin-dependent kinase 17 (Homo sapiens, UniProt Q00537)
[5] = biological target: T4, Cyclin-G-associated kinase (Homo sapiens, UniProt O14976)
T4 sequence (O14976 whole entry): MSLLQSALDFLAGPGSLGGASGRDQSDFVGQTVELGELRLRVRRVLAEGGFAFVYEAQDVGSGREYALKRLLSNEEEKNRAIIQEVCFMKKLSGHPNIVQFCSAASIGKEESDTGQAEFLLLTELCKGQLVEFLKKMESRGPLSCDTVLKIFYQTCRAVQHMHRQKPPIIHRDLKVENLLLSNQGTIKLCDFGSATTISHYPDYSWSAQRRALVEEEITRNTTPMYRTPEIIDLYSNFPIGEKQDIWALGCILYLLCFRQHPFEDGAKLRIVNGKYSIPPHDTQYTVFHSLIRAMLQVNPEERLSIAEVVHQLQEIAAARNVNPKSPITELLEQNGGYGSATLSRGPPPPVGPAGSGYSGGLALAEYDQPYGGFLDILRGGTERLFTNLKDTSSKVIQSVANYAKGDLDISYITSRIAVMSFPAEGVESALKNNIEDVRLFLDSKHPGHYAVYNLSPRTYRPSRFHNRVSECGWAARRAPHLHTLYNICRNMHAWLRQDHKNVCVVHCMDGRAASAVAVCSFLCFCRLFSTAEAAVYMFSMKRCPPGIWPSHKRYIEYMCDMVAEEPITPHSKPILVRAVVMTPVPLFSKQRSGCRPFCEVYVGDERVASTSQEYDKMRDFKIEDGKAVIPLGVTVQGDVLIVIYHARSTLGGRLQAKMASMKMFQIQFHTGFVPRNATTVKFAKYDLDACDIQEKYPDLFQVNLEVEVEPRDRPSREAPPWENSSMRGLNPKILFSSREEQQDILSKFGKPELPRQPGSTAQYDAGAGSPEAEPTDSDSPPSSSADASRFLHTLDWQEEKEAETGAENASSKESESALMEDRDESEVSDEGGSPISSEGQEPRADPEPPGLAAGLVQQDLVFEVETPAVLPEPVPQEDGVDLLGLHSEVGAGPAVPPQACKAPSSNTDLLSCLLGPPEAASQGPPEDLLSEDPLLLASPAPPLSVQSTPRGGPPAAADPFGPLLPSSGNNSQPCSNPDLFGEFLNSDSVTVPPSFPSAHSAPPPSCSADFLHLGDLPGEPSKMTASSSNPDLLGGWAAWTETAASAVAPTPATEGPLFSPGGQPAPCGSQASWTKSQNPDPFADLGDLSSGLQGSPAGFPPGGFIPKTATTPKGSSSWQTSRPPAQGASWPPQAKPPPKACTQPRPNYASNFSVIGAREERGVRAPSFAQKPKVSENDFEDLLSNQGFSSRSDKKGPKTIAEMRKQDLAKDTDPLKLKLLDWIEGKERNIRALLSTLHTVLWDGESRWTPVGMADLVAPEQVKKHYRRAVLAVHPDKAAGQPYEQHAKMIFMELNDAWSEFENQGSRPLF

[6] = biological target: T5, MAP kinase-activated protein kinase 5 (Homo sapiens, UniProt Q8IW41)
T5 sequence (Q8IW41 whole entry): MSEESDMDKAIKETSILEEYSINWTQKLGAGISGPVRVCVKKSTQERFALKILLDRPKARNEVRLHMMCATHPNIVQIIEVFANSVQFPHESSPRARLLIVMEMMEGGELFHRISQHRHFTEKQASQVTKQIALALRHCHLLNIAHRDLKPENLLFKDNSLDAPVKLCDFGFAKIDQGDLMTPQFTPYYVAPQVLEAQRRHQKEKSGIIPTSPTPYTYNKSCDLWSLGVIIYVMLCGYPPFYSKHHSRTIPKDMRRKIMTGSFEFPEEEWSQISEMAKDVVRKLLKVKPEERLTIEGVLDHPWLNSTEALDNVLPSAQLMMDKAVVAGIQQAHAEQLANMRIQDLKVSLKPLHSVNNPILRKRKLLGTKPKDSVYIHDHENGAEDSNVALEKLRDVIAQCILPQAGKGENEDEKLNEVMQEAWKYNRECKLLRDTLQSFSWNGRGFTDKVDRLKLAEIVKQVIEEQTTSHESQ
Note: in the data inactive means no Kd found up to 30 µM.

Chain of Myosin-14 (Q7Z406 whole entry): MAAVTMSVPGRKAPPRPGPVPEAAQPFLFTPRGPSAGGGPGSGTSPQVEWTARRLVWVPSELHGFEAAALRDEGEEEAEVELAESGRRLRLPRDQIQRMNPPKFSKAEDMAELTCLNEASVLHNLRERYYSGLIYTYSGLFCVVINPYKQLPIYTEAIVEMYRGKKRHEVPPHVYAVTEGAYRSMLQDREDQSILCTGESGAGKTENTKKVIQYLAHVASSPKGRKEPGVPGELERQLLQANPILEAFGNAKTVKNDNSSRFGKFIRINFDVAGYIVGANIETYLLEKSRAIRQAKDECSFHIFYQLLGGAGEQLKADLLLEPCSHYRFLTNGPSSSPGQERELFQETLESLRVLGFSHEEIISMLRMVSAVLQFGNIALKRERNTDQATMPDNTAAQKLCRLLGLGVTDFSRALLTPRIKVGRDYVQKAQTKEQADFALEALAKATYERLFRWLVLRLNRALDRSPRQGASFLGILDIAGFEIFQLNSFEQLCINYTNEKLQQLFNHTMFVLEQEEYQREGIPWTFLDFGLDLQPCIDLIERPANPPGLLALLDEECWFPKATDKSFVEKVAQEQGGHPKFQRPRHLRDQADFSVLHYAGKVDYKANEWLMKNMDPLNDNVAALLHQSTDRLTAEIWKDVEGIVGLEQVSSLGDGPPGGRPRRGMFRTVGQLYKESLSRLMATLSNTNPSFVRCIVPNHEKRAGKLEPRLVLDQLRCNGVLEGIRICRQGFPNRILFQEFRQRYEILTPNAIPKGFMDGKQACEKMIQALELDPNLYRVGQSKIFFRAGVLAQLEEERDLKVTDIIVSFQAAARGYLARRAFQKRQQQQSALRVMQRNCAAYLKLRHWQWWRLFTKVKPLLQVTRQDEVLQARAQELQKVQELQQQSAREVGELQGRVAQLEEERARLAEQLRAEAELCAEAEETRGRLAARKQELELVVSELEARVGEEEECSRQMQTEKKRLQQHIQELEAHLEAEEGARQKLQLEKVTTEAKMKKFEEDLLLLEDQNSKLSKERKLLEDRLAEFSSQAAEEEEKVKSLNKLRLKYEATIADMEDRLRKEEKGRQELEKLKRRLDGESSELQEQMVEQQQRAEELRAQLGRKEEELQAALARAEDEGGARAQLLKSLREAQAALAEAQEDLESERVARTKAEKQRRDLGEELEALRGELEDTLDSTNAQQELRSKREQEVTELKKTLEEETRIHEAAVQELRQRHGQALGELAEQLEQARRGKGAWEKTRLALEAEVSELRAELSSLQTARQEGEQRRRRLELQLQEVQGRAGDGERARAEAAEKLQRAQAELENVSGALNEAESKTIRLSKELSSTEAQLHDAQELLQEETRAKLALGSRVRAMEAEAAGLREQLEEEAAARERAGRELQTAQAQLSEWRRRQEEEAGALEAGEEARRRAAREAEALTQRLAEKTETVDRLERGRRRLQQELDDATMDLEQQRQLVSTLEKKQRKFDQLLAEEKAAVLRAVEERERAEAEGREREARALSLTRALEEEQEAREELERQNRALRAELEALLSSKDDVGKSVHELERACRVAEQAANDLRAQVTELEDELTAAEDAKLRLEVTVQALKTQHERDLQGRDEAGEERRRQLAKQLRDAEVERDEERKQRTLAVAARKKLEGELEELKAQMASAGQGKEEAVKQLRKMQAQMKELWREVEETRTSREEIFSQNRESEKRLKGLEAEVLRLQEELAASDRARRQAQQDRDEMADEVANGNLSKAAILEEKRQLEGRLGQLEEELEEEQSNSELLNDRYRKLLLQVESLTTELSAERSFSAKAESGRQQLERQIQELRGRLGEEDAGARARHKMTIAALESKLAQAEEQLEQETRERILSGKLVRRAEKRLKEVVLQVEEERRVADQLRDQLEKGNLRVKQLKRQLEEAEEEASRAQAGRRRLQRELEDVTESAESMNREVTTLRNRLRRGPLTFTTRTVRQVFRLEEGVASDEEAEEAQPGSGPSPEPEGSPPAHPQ
Chain of Cyclin-dependent kinase 17 (Q00537 whole entry): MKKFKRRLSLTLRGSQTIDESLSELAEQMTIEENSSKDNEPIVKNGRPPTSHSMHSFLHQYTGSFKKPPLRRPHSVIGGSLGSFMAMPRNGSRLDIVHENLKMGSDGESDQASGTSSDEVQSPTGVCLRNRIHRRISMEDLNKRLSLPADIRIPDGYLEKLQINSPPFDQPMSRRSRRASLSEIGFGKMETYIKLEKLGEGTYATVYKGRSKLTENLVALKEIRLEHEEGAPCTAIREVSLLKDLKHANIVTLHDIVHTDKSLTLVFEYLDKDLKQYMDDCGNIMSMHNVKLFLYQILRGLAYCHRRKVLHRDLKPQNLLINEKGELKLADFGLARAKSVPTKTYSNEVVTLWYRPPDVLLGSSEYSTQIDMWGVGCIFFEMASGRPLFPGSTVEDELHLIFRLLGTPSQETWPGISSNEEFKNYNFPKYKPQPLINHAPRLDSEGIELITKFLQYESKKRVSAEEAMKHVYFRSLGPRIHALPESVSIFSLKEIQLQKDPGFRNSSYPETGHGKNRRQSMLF
Chain of Protein-tyrosine kinase 6 (Q13882 whole entry): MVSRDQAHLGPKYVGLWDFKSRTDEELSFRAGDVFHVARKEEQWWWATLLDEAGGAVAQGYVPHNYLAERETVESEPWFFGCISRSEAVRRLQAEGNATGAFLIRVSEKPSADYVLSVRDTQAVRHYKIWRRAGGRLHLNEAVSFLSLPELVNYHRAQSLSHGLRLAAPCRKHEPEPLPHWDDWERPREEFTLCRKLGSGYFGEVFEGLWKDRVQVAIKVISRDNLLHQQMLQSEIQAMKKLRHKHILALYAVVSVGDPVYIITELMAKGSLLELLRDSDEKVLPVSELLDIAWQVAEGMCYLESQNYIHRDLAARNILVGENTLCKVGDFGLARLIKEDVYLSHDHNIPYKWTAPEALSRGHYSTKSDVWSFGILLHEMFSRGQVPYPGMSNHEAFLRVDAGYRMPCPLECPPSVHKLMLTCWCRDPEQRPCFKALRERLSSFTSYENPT

Row | SMILES | Kd [1] | Kd [2] | Kd (Myosin-14) | Kd [3] | Kd (Pyridoxal kinase) | Kd [4] | Kd [5] | Kd [6]
1 | Cc1nc(Nc2n[nH]c3c2CN(C(=O)N[C@H](CN(C)C)c2ccccc2)C3(C)C)c2sccc2n1 [PF-03758309] | > 30 µM (inactive) | > 30 µM (inactive) | > 30 µM (inactive) | > 30 µM (inactive) | > 30 µM (inactive) | 0.014 µM (active) | 1.95 µM (active) | > 30 µM (inactive)
2 | COc1cc([C@@H]2c3cc4c(cc3[C@H](O)[C@H]3COC(=O)[C@@H]23)OCO4)cc(OC)c1OC [AXL-1717] | > 30 µM (inactive) | > 30 µM (inactive) | > 30 µM (inactive) | > 30 µM (inactive) | > 30 µM (inactive) | > 30 µM (inactive) | > 30 µM (inactive) | > 30 µM (inactive)
3 | COCc1c(-c2ccc(NC(=O)Nc3cc(C(F)(F)F)ccc3F)c(F)c2)c2c(N)ncnn2c1CN1CCOCC1 | > 30 µM (inactive) | > 30 µM (inactive) | > 30 µM (inactive) | > 30 µM (inactive) | > 30 µM (inactive) | > 30 µM (inactive) | > 30 µM (inactive) | > 30 µM (inactive)
4 | Nc1ncnc2c1c(-c1cccc(OCc3ccccc3)c1)cn2[C@H]1C[C@@H](CN2CCC2)C1 [AEW-541] | 1.94 µM (active) | > 30 µM (inactive) | > 30 µM (inactive) | > 30 µM (inactive) | > 30 µM (inactive) | > 30 µM (inactive) | > 30 µM (inactive) | > 30 µM (inactive)
5 | C=CC(=O)N1CCC[C@H](n2c(=O)n(-c3ccc(Oc4ccccc4)cc3)c3c(N)ncnc32)C1 | 0.025 µM | > 30 µM (inactive) | > 30 µM (inactive) | > 30 µM (inactive) | > 30 µM (inactive) | > 30 µM (inactive) | > 30 µM (inactive) | > 30 µM (inactive)
6 | COc1cc2c(Nc3ccc(Cl)c(Cl)c3F)ncnc2cc1OC[C@@H]1C[C@@H]2CN(C)C[C@@H]2C1 [TESEVATINIB] | 0.172 µM (active) | > 30 µM (inactive) | > 30 µM (inactive) | > 30 µM (inactive) | > 30 µM (inactive) | > 30 µM (inactive) | 0.615 µM (active) | > 30 µM (inactive)
7 | CO[C@H]1C[C@@H]2CC[C@@H](C)[C@@](O)(O2)C(=O)C(=O)N2CCCC[C@H]2C(=O)O[C@H]([C@H](C)C[C@@H]2CC[C@@H](OC(=O)C(C)(CO)CO)[C@H](OC)C2)CC(=O)[C@H](C)/C=C(\C)[C@@H](O)[C@@H](OC)C(=O)[C@H](C)C[C@H](C)/C=C/C=C/C=C/1C [TEMSIROLIMUS] | > 30 µM (inactive) | > 30 µM (inactive) | > 30 µM (inactive) | > 30 µM (inactive) | > 30 µM (inactive) | > 30 µM (inactive) | > 30 µM (inactive) | > 30 µM (inactive)
8 | Cn1cnc2c(F)c(Nc3ccc(Br)cc3F)c(C(=O)NOCCO)cc21 [BINIMETINIB] | > 30 µM (inactive) | 14.7 µM (active) | > 30 µM (inactive) | > 30 µM (inactive) | > 30 µM (inactive) | > 30 µM (inactive) | > 30 µM (inactive) | > 30 µM (inactive)
9 | CCOc1cc2ncc(C#N)c(Nc3ccc(F)c(Cl)c3)c2cc1NC(=O)/C=C/CN(C)C [PELITINIB] | > 30 µM (inactive) | > 30 µM (inactive) | > 30 µM (inactive) | > 30 µM (inactive) | > 30 µM (inactive) | > 30 µM (inactive) | 0.117 µM (active) | > 30 µM (inactive)
10 | COc1c(OCCCN2CCOCC2)ccc2c1N=C(NC(=O)c1cnc(N)nc1)N1CCN=C21 [COPANLISIB] | > 30 µM (inactive) | > 30 µM (inactive) | > 30 µM (inactive) | > 30 µM (inactive) | > 30 µM (inactive) | > 30 µM (inactive) | > 30 µM (inactive) | > 30 µM (inactive)
11 | O=c1[nH]ccc2cc(OC3CCNCC3)ccc12 [SAR-407899 FREE BASE] | > 30 µM (inactive) | > 30 µM (inactive) | > 30 µM (inactive) | > 30 µM (inactive) | > 30 µM (inactive) | > 30 µM (inactive) | > 30 µM (inactive) | > 30 µM (inactive)
12 | CNC(=O)c1cccc2cc(Oc3ccnc4cc(OCC5(N)CC5)c(OC)cc34)ccc12 [LUCITANIB] | > 30 µM (inactive) | > 30 µM (inactive) | > 30 µM (inactive) | > 30 µM (inactive) | 16.4 µM (active) | > 30 µM (inactive) | > 30 µM (inactive) | > 30 µM (inactive)
13 | C[C@@H](NC(=O)c1ncnc(N)c1Cl)c1ncc(C(=O)Nc2cc(C(F)(F)F)c(Cl)cn2)s1 [TOVORAFENIB] | > 30 µM (inactive) | > 30 µM (inactive) | > 30 µM (inactive) | > 30 µM (inactive) | > 30 µM (inactive) | > 30 µM (inactive) | > 30 µM (inactive) | > 30 µM (inactive)
14 | NC(=O)Nc1cc(-c2cccc(F)c2)sc1C(=O)N[C@H]1CCCNC1 [AZD-7762] | 1.37 µM (active) | > 30 µM (inactive) | > 30 µM (inactive) | > 30 µM (inactive) | > 30 µM (inactive) | > 30 µM (inactive) | 0.202 µM (active) | > 30 µM (inactive)
15 | Cn1cc(-c2cnn3c(N)c(Br)c([C@@H]4CCCNC4)nc23)cn1 [SCH-900776] | > 30 µM (inactive) | 2.36 µM (active) | > 30 µM (inactive) | > 30 µM (inactive) | > 30 µM (inactive) | > 30 µM (inactive) | > 30 µM (inactive) | > 30 µM (inactive)
